The target of experiment [1] is Human immunodeficiency virus type 1 protease (Human immunodeficiency virus 1, UniProt Q72874, I50V). As to the kind of experiment: Inhibition of HIV-1 protease I50V mutant using Abz-Thr-Ile-Nle-p-nitro-Phe-Gln-Arg-NH2 as substrate incubated for 5 mins prior to substrate addition measured for 5 mins by fluorescence assay.
Experiment [2] deals with Human immunodeficiency virus type 1 protease (Human immunodeficiency virus 1, UniProt Q72874, R8Q). As to the kind of experiment: Inhibition of HIV-1 protease R8Q mutant using Abz-Thr-Ile-Nle-p-nitro-Phe-Gln-Arg-NH2 as substrate incubated for 5 mins prior to substrate addition measured for 5 mins by fluorescence assay.
Experiment [3] deals with Protease (Human immunodeficiency virus 1, UniProt Q9YQ12). As to the kind of experiment: Inhibition of HIV-1 wildtype protease using Abz-Thr-Ile-Nle-p-nitro-Phe-Gln-Arg-NH2 as substrate incubated for 5 mins prior to substrate addition measured for 5 mins by fluorescence assay.
Chain of Protease (Q9YQ12 whole entry): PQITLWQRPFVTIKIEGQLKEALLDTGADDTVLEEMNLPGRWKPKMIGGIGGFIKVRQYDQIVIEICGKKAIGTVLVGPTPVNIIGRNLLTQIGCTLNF
For experiment [4], the system named is Human immunodeficiency virus 1. As to the kind of experiment: Ratio of Ki for HIV-1 protease I50V mutant to Ki for HIV-1 wildtype protease.
Experiment [5] deals with Human immunodeficiency virus type 1 protease (Human immunodeficiency virus 1, UniProt Q72874, V82A). As to the kind of experiment: Inhibition of HIV-1 protease V82A mutant using Abz-Thr-Ile-Nle-p-nitro-Phe-Gln-Arg-NH2 as substrate incubated for 5 mins prior to substrate addition measured for 5 mins by fluorescence assay.
Experiment [6] deals with Human immunodeficiency virus 1. The experiment in a line: Ratio of Ki for HIV-1 protease D30N mutant to Ki for HIV-1 wildtype protease.
For experiment [7], the target named is Human immunodeficiency virus type 1 protease (Human immunodeficiency virus 1, UniProt Q72874, D30N). The experiment in a line: Inhibition of HIV-1 protease D30N mutant using Abz-Thr-Ile-Nle-p-nitro-Phe-Gln-Arg-NH2 as substrate incubated for 5 mins prior to substrate addition measured for 5 mins by fluorescence assay.
The target of experiment [8] is Human immunodeficiency virus type 1 protease (Human immunodeficiency virus 1, UniProt Q72874, I54M). The experiment in a line: Inhibition of HIV-1 protease I54M mutant using Abz-Thr-Ile-Nle-p-nitro-Phe-Gln-Arg-NH2 as substrate incubated for 5 mins prior to substrate addition measured for 5 mins by fluorescence assay.
Experiment [9] concerns Human immunodeficiency virus 1. As to the kind of experiment: Ratio of Ki for HIV-1 protease R8Q mutant to Ki for HIV-1 wildtype protease.
Experiment [10] has as its system Human immunodeficiency virus 1. The experiment in a line: Ratio of Ki for HIV-1 protease V82A mutant to Ki for HIV-1 wildtype protease.
The test system of experiment [11] is Human immunodeficiency virus 1. The experiment in a line: Ratio of Ki for HIV-1protease I54M mutant to Ki for HIV-1 wildtype protease.

Structures are written as SMILES.

One may read the Ki as a measure of affinity in units of concentration, obtained from inhibition or displacement. High values mean weaker binding, low ones tighter binding.

With `COc1ccc(S(=O)(=O)N(CC(C)C)C[C@@H](O)[C@H](Cc2ccccc2)NC(=O)O[C@H]2CO[C@H]3O[C@@H]4OCC[C@@H]4[C@H]32)cc1`, the Ki in experiment [1] came to 30.9 nM; in [2], 1.2 nM; in experiment [3], 0.5 nM; in [5], 3.2 nM; in experiment [7], 8.9 nM; in [8], 3.5 nM. The Ratio Ki in [4] stood at 60; in experiment [6], 18; in [9] it was 2; in experiment [10] it was 6; in experiment [11] it was 7.

These data come from ChEMBL document CHEMBL2311291, “Novel P2 tris-tetrahydrofuran group in antiviral compound 1 (GRL-0519) fills the S2 binding pocket of selected mutants of HIV-1 protease” (J Med Chem, 2013).
